One test concerns the target T1, PRMT5-MEP50 enzyme (Homo sapiens, UniProt O14744).
T1 construct: One virus expresses full length human PRMT5 with Flag-tag at N-terminus; Flag (N); purchased Charles River (Argenta); host or cells: insect cells (Sf9), baculovirus co-infection
In words: In vitro assay 1b: high throughput mass spectrometer assay of SAH formation, 1.25 nM enzyme, 120 min. The format is biochemical. As to conditions: averaged values; PRMT5-MEP50, 1.25 nM enzyme, 120 min; read-out: pIC50 Assay 1b (converted). An excerpt: Experimental Procedures In Vitro Assay (Assay 1a and 1b)
PRMT5-MEP50 enzyme was purchased from Charles River (Argenta). The enzyme complex was produced in insect cells (Sf9) infected simultaneously with two baculoviruses. One virus expresses full length human PRMT5 with Flag-tag at N-terminus, the second virus expresses full length MEP50 with His6-TEV cleavage at N-terminus. The protein was affinity purified using anti-Flag (M2) beads eluted with 3×FLAG peptide, followed by His-Select eluted with 0.5M imidazole. Eluted protein was then dialysed against tris-buffered saline (TBS) (pH 8.0) containing 20% glycerol and 3 mM dithiothreitol (DTT).
Full-length untagged human recombinant histone H2A (residues 1-130, Genbank Accession #NM_021052 MW=14.1 kDa) expressed in E. coli was purchased from Reaction Biology Corporation, Cat #HMT-11-146. Reagents used for making reaction buffer or stopping reaction were purchased including Tris base (Sigma Cat #T-1503), NaCl (Sigma Cat #RGF-3270), MgCl2 (Sigma Cat #M0250), DTTI (Invitrogen Cat #15508-013) and Formic Acid (Riedel deHaen, Cat #33015)
High Throughput Mass Spectrometer Assay
PRMT5 catalyzes the sequential methylations of the terminal nitrogen atoms on the guanidine groups of arginine residues within proteins using co-substrate S-adenosyl-L-methionine (AdoMet, SAM), forming mono-methyl (MMA), symmetric-dimethyl arginine (sDMA) and S-adenosyl-L-homocysteine (AdoHcy, SAH). The enzyme activity was determined by following the product SAH formation using high throughput mass spectrometry (Agilent Rapidfire 300 System coupled to a Sciex 4000 series QTrap® triple-quad MS/MS). The reaction buffer was 20 mM Tris-HCl, pH 8.5, 50 mM NaCl, 5 mM MgCl2 and 1 mM DTT. The reaction activity was stopped using 1% formic acid (final concentration).
The IC50 Studies were performed using eleven point dosing series made for each compound by serially diluted 1:2 in dimethyl sulfoxide (DMSO), with point 12 being a DMSO control. Compounds were first spotted to plates, and followed by addition of 2 μM SAM and 0.6 μM H2A (histone H2A) solution mixture. The same volume of enzyme solution was added to initiate the enzymatic reactions. The final concentrations of the reaction are at 1 μM SAM, 0.3 μM H2A and 10 nM enzyme (assay 1a) or 1.25 nM enzyme (assay 1b). The reaction was incubated at 30° C. for 60 minutes (min) when 10 nM enzyme was used and for 120 min when 1.25 nM enzyme was used. Subsequently, the reaction was quenched by addition of formic acid to a final concentration of 1%. The inhibitions of SAH formation in the presence of compounds were calculated as a percentage of the control relative to the uninhibited reaction as a function of inhibitor concentration. The data were fit as follows: Y=Bottom+(Top−Bottom)/(1+10^((log IC50−X)*h))
where IC50 is the inhibitor concentration (same unit as X) at 50% inhibition and h is the Hill slope. Y is percent of inhibition, X is log of compound concentration. Bottom and Top are the plateaus in same units as Y.

In test [1] the test system is nuclear symmetric Arginine dimethylation in A549 cells. In words: PD assay (assay 2): inhibition of nuclear symmetric Arginine dimethylation (SYM10 immunohistochemistry), 48 h. It is filed as cell-based. The note with it: Homo sapiens, A549, averaged values; PD assay, A549 cells, symmetric Arginine dimethylation; read-out: pIC50 Assay 2 (converted). The procedure: Experimental Procedure PD Assay (Assay 2)
A549 cells (ATCC, Cat #CCL-185) were cultured in Dulbecco's Modified Eagle's Medium (DMEM) (Sigma, Cat #D5796), supplemented with 10% Fetal Calf Serum (FCS) (HyClone™, Cat #SV30160.03), 100 mM Sodium Pyruvate (Sigma, Cat #S8636), 200 mM L-Glutamine (Sigma, Cat #G7513) and 50 mg/mL gentamycin (Gibco, Cat #15750-037).
Reagents used for buffers were purchased: Dulbecco's phosphate buffered saline (DPBS) without Ca/Mg (Sigma, Cat #D8537), phosphate buffered saline (PBS) 10× (Roche, Cat #11 666 789 001), Formalin solution 10% (Sigma, HT50-1-128-4L), Methanol 100% (Sigma, Cat #32213-2.5L), Triton X-100 (Acros, Cat #215680010), Bovine Serum Albumin (BSA) (Sigma, Cat #A2153), Alexa fluor 488 goat anti-rabbit antibody (Life Technologies, Cat #A11034), HCS CellMask Deep Red Stain (Life Technologies, Cat #H32721), Hoechst Stain (Life Technologies, Cat #33258), Anti-dimethyl-Arginine, sym (SYM10) antibody (Millipore, 07-412).
Immunohistochemistry Procedure
Cells were plated at 400 cells/40 μL/well in 384 well black μplates clear bottom (Perkin Elmer) and overnight incubated at 37° C., 5% CO2. […] 80 nL of the respective dilution of the compounds was added using the Labcyte POD 810 (Labcyte) reaching a final DMSO concentration of 0.2% in cell culture. After an incubation period of 48 h at 37° C. and 5% CO2, cells were fixed in 10% formalin solution for 15 min at room temperature and 20 min in ice-cold methanol, after which they were washed 3× in DPBS. Subsequently, the cells were blocked for 1 h in blocking buffer (PBS+1% BSA and 0.5% Triton X-100) and incubated overnight at 4° C. with the SYM10 antibody diluted 1/2000 in blocking buffer. The cells were washed 3× with washing buffer (PBS+0.1% Triton X-100) and incubated with the Alexa fluor 488 goat anti-rabbit antibody diluted 1/200 in blocking buffer for 1 h at room temperature. Subsequently, they were washed 3× with washing buffer and incubated for 30 min at room temperature with PBS containing a 1/5000 dilution of Hoechst Stain and a 1/5000 dilution of the HCS CellMask Deep Red Stain. After a final wash with PBS, the plates were imaged using the 10×W lens of the Opera® system (Perkin Elmer Life Sciences) using following settings (values in nm):
In the above equations, the following variable names are used: […]
In the above equations, the following controls were used for normalization: […]
Low control: minimum level of symmetrically dimethylated Arginines (cells treated with reference compound at 10 μM).
High control: maximum level of symmetrically dimethylated Arginines (DMSO treated cells).
IC50 and pIC50 (−log IC50) values were calculated using the appropriate software.
The pIC50 values in the Table below are averaged values (Co. No. means compound number; n.d. means not determined).

This note sets out measurements from patent US11318157B2, “6-6 bicyclic aromatic ring substituted nucleoside analogues for use as PRMT5 inhibitors” (Janssen Pharmaceutica NV, priority 2015, dated 2022).

The structures appear in SMILES notation. A value given as a limit tells only on which side of the number the result lay.

T1 sequence (O14744 whole entry): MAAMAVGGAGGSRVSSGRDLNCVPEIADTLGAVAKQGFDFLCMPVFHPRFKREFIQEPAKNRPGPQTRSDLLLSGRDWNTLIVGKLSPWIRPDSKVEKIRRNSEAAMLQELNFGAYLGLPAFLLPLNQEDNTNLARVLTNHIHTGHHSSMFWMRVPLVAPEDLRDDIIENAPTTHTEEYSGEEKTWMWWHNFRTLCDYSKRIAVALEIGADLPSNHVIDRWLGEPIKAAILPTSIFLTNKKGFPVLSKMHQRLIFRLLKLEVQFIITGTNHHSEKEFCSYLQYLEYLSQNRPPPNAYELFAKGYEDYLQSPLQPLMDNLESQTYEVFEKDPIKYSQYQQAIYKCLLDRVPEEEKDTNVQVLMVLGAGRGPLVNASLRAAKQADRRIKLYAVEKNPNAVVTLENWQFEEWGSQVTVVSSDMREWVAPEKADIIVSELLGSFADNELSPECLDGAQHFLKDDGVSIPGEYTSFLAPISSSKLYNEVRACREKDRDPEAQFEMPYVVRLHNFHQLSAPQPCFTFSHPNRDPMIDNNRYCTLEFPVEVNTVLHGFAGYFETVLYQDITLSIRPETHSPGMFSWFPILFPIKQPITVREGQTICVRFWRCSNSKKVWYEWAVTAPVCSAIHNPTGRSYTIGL
T1 sequence (Q9BQA1 whole entry partner): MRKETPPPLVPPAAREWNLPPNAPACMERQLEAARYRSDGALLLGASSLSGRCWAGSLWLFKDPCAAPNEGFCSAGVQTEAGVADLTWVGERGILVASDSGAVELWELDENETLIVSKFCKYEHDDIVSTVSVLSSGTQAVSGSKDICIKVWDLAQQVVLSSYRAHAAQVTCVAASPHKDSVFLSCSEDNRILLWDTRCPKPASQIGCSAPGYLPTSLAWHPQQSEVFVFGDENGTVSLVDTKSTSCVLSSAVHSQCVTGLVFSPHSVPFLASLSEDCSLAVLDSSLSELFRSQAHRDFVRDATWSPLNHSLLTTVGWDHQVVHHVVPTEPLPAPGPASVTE

`Nc1ncnc2c1ccn2[C@@H]1C[C@H](CCc2ccc3cc(Br)c(NC4CC4)nc3c2)[C@@H](O)[C@H]1O` [Compound 153]: the IC50 was 200 nM on PRMT5-MEP50 enzyme and 31.6 nM in test [1].
Take `COc1ncnc2c1ccn2[C@@H]1C[C@H](CCc2ccc3cc(C(F)(F)F)c(N)nc3c2)[C@@H](O)[C@H]1O` [Compound 200]: the IC50 at PRMT5-MEP50 enzyme was 6.31 nM; in test [1], 1000 nM.
Take `COc1ncnc2c1ccn2[C@@H]1C[C@H](CCc2ccc3ccc(NCC4CC4)nc3c2)[C@@H](O)[C@H]1O` [Compound 210]: the IC50 at PRMT5-MEP50 enzyme was 2.51 nM; in test [1], 126 nM.
For the compound `Nc1nc2cc(CC[C@H]3C[C@@H](n4ccc5cncnc54)[C@H](O)[C@@H]3O)ccc2cc1Cl` [Compound 242], the IC50 on PRMT5-MEP50 enzyme was 1 nM; in test [1], < 1.17 nM.
Taken in the same sequence, the figures for `CNc1ncnc2c1ccn2[C@@H]1C[C@H](CCc2ccc3ccc(NCC(F)(F)F)nc3c2)[C@@H](O)[C@H]1O` [Compound 162] were 7.94 nM and 158 nM.
The like results for `Nc1ncc2ccn([C@@H]3C[C@H](CCc4ccc5cc(Cl)c(N)nc5c4)[C@@H](O)[C@H]3O)c2n1` [Compound 243] were, in that order, 0.794 nM and < 1.17 nM.
For `CNc1ncnc2c1ccn2[C@@H]1O[C@H](CCc2ccc3cc(Br)c(N)nc3c2)[C@@H](O)[C@H]1O` [Compound 239], the values for the IC50 (on PRMT5-MEP50 enzyme; in test [1]) were 10 nM and 25.1 nM, respectively.
With `COc1ncnc2c1ccn2[C@@H]1C[C@H](CCc2ccc3cc(Cl)c(N)nc3c2)[C@@H](O)[C@H]1O` [Compound 195], the values for the IC50 (at PRMT5-MEP50 enzyme; in test [1]) were 0.501 nM and 25.1 nM, respectively.
As to `COc1ncnc2c1ccn2[C@@H]1C[C@H](CCc2ccc3cc(F)c(N)nc3c2)[C@@H](O)[C@H]1O` [Compound 204], the IC50 at PRMT5-MEP50 enzyme was 3.98 nM; in test [1] it was 63.1 nM.
As to `Nc1ncnc2c1ccn2[C@@H]1C[C@H](OCc2ccc3ccc(NCC4CC4)nc3c2)[C@@H](O)[C@H]1O` [Compound 160], the results for the IC50 (on PRMT5-MEP50 enzyme; in test [1]) were 0.794 nM and 15.8 nM, respectively.
`CNc1ncnc2c1ccn2[C@@H]1O[C@H](CCc2ccc3cc(Cl)c(N)nc3c2)[C@@H](O)[C@H]1O` [Compound 198]: the results for the IC50 (on PRMT5-MEP50 enzyme; in test [1]) were 3.98 nM and 63.1 nM, respectively.
On to `Nc1nc2cc(CC[C@H]3C[C@@H](n4ccc5c(NC6CC6)ncnc54)[C@H](O)[C@@H]3O)ccc2cc1Cl` [Compound 197], for which the IC50 on PRMT5-MEP50 enzyme was 0.631 nM; in test [1] it was 31.6 nM.
With `Nc1nc2cc(CC[C@H]3C[C@@H](n4ccc5c(N)ncnc54)[C@H](O)[C@@H]3O)ccc2cc1C(F)(F)F` [Compound 154], the IC50 on PRMT5-MEP50 enzyme is 0.316 nM; in test [1], 2.51 nM.
`CNc1ccc2ccc(CC[C@H]3C[C@@H](n4ccc5c(OC)ncnc54)[C@H](O)[C@@H]3O)cc2n1` [Compound 180]: the IC50 on PRMT5-MEP50 enzyme is 1.26 nM; in test [1] it was 39.8 nM.
On to `COc1ncnc2c1ccn2[C@@H]1C[C@H](CCc2ccc3ccc(NC4CC4)nc3c2)[C@@H](O)[C@H]1O` [Compound 181], for which the results for the IC50 (on PRMT5-MEP50 enzyme; in test [1]) were 1.26 nM and 39.8 nM, respectively.
For the compound `COc1ncnc2c1ccn2[C@@H]1C[C@H](CCc2ccc3ccc(NCC(F)F)nc3c2)[C@@H](O)[C@H]1O` [Compound 182], the IC50 on PRMT5-MEP50 enzyme was 6.31 nM; in test [1] it was 316 nM.
`CNc1ncnc2c1ccn2[C@@H]1C[C@H](CCc2ccc3cc(Br)c(N)nc3c2)[C@@H](O)[C@H]1O` [Compound 238]: the IC50 at PRMT5-MEP50 enzyme was 0.794 nM; in test [1] it was 1.26 nM.
As to `Nc1nc2cc(CC[C@H]3O[C@@H](n4ccc5c(N)ncnc54)[C@H](O)[C@@H]3O)ccc2cc1Cl` [Compound 158], the IC50 on PRMT5-MEP50 enzyme was 0.126 nM; in test [1], 3.16 nM.
Taken in the same sequence, the figures for `COc1ncnc2c1ccn2[C@@H]1C[C@H](CCc2ccc3ccc(NCC(F)(F)F)nc3c2)[C@@H](O)[C@H]1O` [Compound 188] were 39.8 nM and 631 nM.
In the case of `Nc1ncnc2c1ccn2[C@@H]1C[C@H](CCc2ccc3ccc(Nc4ccc(Cl)cc4)nc3c2)[C@@H](O)[C@H]1O` [Compound 161], the IC50 at PRMT5-MEP50 enzyme was 1.58 nM; in test [1], 39.8 nM.
